Values joined by “and” are separate entries in the source; they are usually repeats but may differ in a detail not shown here. Equal values may be shown once.
Assays:
[1] = QRC release study, modified transwell support with 1-octanol acceptor; format: physicochemical; conditions: QRC release from BioQ-CPX, data up to 30 h
Description: QRC release studies were carried out using a modified transwell permeable support (0.45 µm) filled with 5 mg of the BioQ-CPX powder and soaked with 0.2 mL of citrate buffer pH 5.5. The entire system was dipped inside a beaker filled with 8 mL of 1-octanol as a suitable acceptor fluid. […] The experiments were carried out at 37 ± 0.5 °C under constant stirring and protected by light exposure while, immediately after sampling, opportune volumes of fresh acceptor fluid were added to maintain the sink conditions. Data are reported as means ± SE (n = 6). Drug release profiles were elaborated using OriginPro 8.5 software and fitted with semi-empirical model equations. Fittings were validated by using R^2 value where a p-value of less than 0.05 was considered statistically significant.

[2] = Screening of the liquid lipids: visual evaluation of QRC dissolution (5% w/w); format: physicochemical; conditions: QRC 5% w/w (5:95)
Description: Labrasol®, Capryol PGMC®, Plurol®, Maisine®, Labrafil® M 1944 CS, and PEG-18 G/C were selected as liquid lipids to evaluate their ability to completely dissolve the desired amount of QRC (5% w/w). Briefly, 50 mg of QRC was added to 950 mg of each lipid. Each mixture was then ultrasonicated (Emerson Branson 1200, Branson, Brookfield, USA) for 15 min, allowing QRC powder disaggregation. Then, mixtures were maintained under magnetic stirring (200 rpm) and kept in a silicone thermostatic bath heated up to 60 °C (Heidolph MR3001K, Schwabach, Germany) for 30 min. After cooling at room temperature, samples were evaluated in terms of appearance and clearness.

[3] = cited from earlier work
[4] = parameters: method as in doi:10.1016/j.jfoodeng.2010.04.001; conditions: Water pH 7; cited from earlier work
[5] = QRC stability assay in aqueous environments (UV-Vis absorbance at 360 nm); format: physicochemical; conditions: for decrease of absorbance ratio at 360 nm: QRC 0.01 mg/mL, room temperature, after 6 h
Description: QRC degradation rate was investigated in: (i) PBS pH 7.4 containing 10% v/v of DMSO (solvent A) and (ii) citrate buffer pH 5.5 solution amended with either 10% v/v of DMSO (solvent B) or 10% v/v of DMSO and 0.002% w/v of ACys (solvent C). The prepared QRC aqueous solutions (0.01 mg/mL) were kept at room temperature for 6 h in quartz cuvette located in the UV–Vis spectrophotometer (Shimadzu 1700 instrument, Kyoto, Japan). At scheduled time intervals (10 min), QRC spectra were recorded (from 200 to 700 nm) to highlight any changes in terms of sharp and absorption peaks. Results were reported as absorbance variation at lambda max (360 nm) over time according to the following equation: Abs variation %=Abstn/Abst0×100 where Abst0 and Abstn are the QRC absorbance recorded initially and at each time point, respectively. The stability assays were performed in triplicate. Results are reported as means ± SE.

DPPH antioxidant assay = format: biochemical; conditions: 0.08-0.01 mg/mL
Description: To evaluate the antioxidant activity of BioQ-CPX, the 2,2-diphenyl-1-picrylhydrazyl (DPPH) assay was performed. […] A measure of 0.5 mL of nanocomposite solution was transferred in polystyrene cuvette, added to 2.5 mL of DPPH ethanol solution (0.0295 mg/mL), and preserved by light exposure using foil. At determined time intervals (0, 0.25, 1, and 2 h), the DPPH concentration was measured spectrophotometrically at room temperature by observing the spectral range 400-800 nm and selecting λmax = 515 nm for quantification. The DPPH calibration curve was constructed analyzing DPPH ethanol solutions in the concentration range of 0.039-0.0156 mg/mL (λmax = 515 nm, regression equation: […] Results are expressed as means ± SE.

[6] = Ex vivo permeation/penetration experiments in Franz-type cells; format: in vitro ADME, pig; conditions: from 30 mg BioQ-CPX
Description: Tissue specimens were obtained from the vestibular area of the retromolar trigone derived from 6–8-month-old pigs supplied by the Municipal Slaughterhouse of Villabate (Palermo, Italy) since withdrawn from animals intended for human consumption. By a refrigerated transport box, the specimens were immediately transferred to the laboratory within 1 h from animal sacrifice and surgically treated to remove both adipose and connective tissues in excess. Afterward, they were dipped for 30 min in a 5% THR (w/v) isotonic solution and then stored at −80 °C for a minimum period of one week. Before the permeation/penetration experiments, tissue samples were accurately washed to remove the cryoprotectant, and, subsequently, thermal shocked to obtain the buccal mucosa. Briefly, tissue samples were dipped for 30 s in a pre-warmed (70 °C) isotonic solution, and then the mucosa was carefully peeled off from the connective tissue, obtaining the heat-separated epithelium along with the intact basal lamina. Finally, it was equilibrated in an isotonic solution for 3 h by replacing the medium every 15 min to remove all the biological matter, which could affect the analysis, before use.
The ex vivo permeation/penetration studies were carried out using vertical Franz-type diffusion cells. Briefly, appropriate sections of buccal mucosa were mounted between the donor and the acceptor chambers filled with 1 mL of citrate buffer pH 5.5 and 15 mL of citrate buffer pH 5.5 amended with acetic acid 0.1% (v/v), Acys 0.002% (w/v), and β-CD 3% (w/v). The whole system was equilibrated at 37 ± 0.5 °C for 30 min. Afterward, the medium was removed from the donor compartment, promptly replaced with 30 mg of BioQ-CPX, and soaked with 0.2 mL of citrate buffer pH 5.5. Every 30 min, aliquots (0.5 mL) were withdrawn from the acceptor chamber and immediately replaced with the same volume of fresh acceptor fluid to maintain the sink conditions. Experiments were carried out at 37 ± 0.5 °C in the dark and under constant stirring, being stopped at different time points ranging from 1 to 6 h. The amount of permeated QRC and CPX were quantified by UV–Vis analysis. Data are reported as means ± SE (n = 6).
Briefly, the mucosa was dipped into 2 mL of methanol and warmed up to 60 °C. The extraction procedure was performed twice, and the collected extraction liquors were transferred into a 10 mL flask and brought to volume with fresh methanol. Thus, QRC and CPX amounts were determined by UV–Vis analysis. Results are reported as means ± SE.

Structure (SMILES): O=c1c(O)c(-c2ccc(O)c(O)c2)oc2cc(O)cc(O)c12 [QRC, quercetin]
- Korsmeyer-Peppas n [1]: 0.7915
- Korsmeyer-Peppas with Tlag n [1]: 0.6509 ± 0.0127 and 0.6509
- First-Order k ([1]; time in hours): 0.05179
- Korsmeyer-Peppas k ([1]; time in hours): 0.0578
- Korsmeyer-Peppas with Tlag k ([1]; time in hours): 0.0947
- Korsmeyer-Peppas with Tlag: Tlag ([1]; time in hours): 1.440
- Zero-Order k ([1]; time in hours): 0.02997
- Appearance of QRC-liquid lipid mixture ([2]; Capryol PGMC): Opalescent
- Appearance of QRC-liquid lipid mixture ([2]; Labrafil M 1944 CS): Opalescent
- Appearance of QRC-liquid lipid mixture ([2]; Labrasol): Clear
- Appearance of QRC-liquid lipid mixture ([2]; Maisine): Opalescent
- Appearance of QRC-liquid lipid mixture ([2]; PEG-18 G/C): Slightly Opalescent
- Appearance of QRC-liquid lipid mixture ([2]; Plurol): Opalescent
- logP [3]: 1.50
- Solubility [4]: 0.002 [52] mg/mL
- decrease of absorbance ratio at 360 nm ([5]; PBS pH 7.4 + 10% v/v DMSO): 42%
- QRC stability over time ([5]; citrate buffer pH 5.5 + 10% v/v DMSO + 0.002% w/v ACys): improved
- decrease of absorbance ratio at 360 nm ([5]; citrate buffer pH 5.5 + 10% v/v DMSO): 25%
- %RCD compared with BioQ-CPX samples (DPPH antioxidant assay; corresponding to QRC content of the nanocomposite samples, after 1 and 2 h): same values of %RCD and trends
- scavenging activity compared with BioQ-CPX samples (DPPH antioxidant assay; within 15 min incubation): lower
- maximum amount accumulated into the mucosa ([6]; after 5 h): about 5 % of drugs dose
- amount accumulated into the mucosa ([6]; first hour from application): about 4 % of dose

— publication PMC8706998, “Lipid Nanocarriers-Loaded Nanocomposite as a Suitable Platform to Release Antibacterial and Antioxidant Agents for Immediate Dental Implant Placement Restorative Treatment” (Pharmaceutics, 2021)
